Consider nine molecules from article PMC4142842, “Synthesis of isoprenoid bisphosphonate ethers through C–P bond formations: Potential inhibitors of geranylgeranyl diphosphate synthase” (Beilstein Journal of Organic Chemistry, 2014).

Like-named read-outs stand apart in the source and are kept apart here. Some results are limits rather than exact numbers.

In one experiment the test system is K562 cells. Further details: method as in PMID 16517172. The settings on record: micromolar DGBP; cited from earlier work.
For experiment [1], the target named is T1, farnesyl diphosphate synthase (FDPS) (Homo sapiens, UniProt P14324).
T1 construct: gift of Dr. James E. Dunford (not a commercial vendor)
T1 sequence (P14324 1-419): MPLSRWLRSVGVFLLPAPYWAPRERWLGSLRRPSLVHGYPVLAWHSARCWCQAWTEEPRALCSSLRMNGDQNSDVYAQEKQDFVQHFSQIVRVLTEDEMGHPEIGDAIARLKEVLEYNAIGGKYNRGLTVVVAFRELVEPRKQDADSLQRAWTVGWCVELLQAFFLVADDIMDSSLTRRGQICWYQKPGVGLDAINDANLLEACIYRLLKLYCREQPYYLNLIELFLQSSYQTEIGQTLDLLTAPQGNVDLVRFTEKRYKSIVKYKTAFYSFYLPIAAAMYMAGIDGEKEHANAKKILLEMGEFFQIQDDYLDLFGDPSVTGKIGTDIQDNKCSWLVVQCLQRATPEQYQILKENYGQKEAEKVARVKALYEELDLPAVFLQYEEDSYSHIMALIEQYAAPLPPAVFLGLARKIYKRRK
Nature of the experiment: FDPS enzyme assay (14C-IPP incorporation, GPP substrate). Format: biochemical. The settings on record: for IC50: 10 µM GPP, 10 min preincubation.

In experiment [2] the target is T1, farnesyl diphosphate synthase (FDPS). Set-up: method as in PMID 17208200. The settings on record: earlier enzyme assays; cited from earlier work.
The target of experiment [3] is T2, geranylgeranyl diphosphate synthase (GGDPS) (Homo sapiens, UniProt O95749).
T2 construct: gift of Dr. James E. Dunford (not a commercial vendor)
T2 sequence (O95749 1-300): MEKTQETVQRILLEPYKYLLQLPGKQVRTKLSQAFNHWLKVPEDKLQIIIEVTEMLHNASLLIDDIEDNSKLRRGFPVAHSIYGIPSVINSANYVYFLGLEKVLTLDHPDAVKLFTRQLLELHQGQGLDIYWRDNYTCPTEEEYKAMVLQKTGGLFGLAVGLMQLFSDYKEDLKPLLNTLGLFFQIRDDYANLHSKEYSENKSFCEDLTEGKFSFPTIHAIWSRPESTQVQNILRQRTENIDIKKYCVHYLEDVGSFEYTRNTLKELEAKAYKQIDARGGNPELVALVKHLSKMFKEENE
Nature of the experiment: GGDPS enzyme assay (14C-IPP incorporation, FPP substrate). Format: biochemical. Conditions: for IC50 / activity against GGDPS (in words): enzyme assay; for IC50: 10 µM FPP, 10 min preincubation.

In experiment [4] the target is T2, geranylgeranyl diphosphate synthase (GGDPS). Conditions: previously reported limited activity; cited from earlier work.

In general, IC50 refers to the concentration needed to halve the response being measured.

Consider `CC(C)=CCC/C(C)=C/CC(C/C=C(\C)CCC=C(C)C)(P(=O)(O)O)P(=O)(O)O` [Compound 5, digeranyl bisphosphonate], for which the “Rap1a geranylgeranylation (Western blot)” value in the experiment with K562 cells is “only partially modified”. Further, the IC50 in experiment [1] and in experiment [2] was more than 10 µM throughout.
On to `CC(C)=CCC/C(C)=C/COC(C/C=C(\C)CCC=C(C)C)(P(=O)(O)O)P(=O)(O)O` [Compound 6], for which the figures for the IC50 in experiment [1] and in experiment [3] were more than 10 µM and 0.408 µM, respectively.
In the case of `CC(C)=CCC/C(C)=C/COC(P(=O)(O)O)P(=O)(O)O` [Compound 11], the concentration for half-maximal inhibition (IC50) in experiment [1] was more than 10 µM; in experiment [3] it was 0.238 µM.
`CC(C)=CCOC(P(=O)(O)O)P(=O)(O)O` [Compound 14]: the “activity against FDPS (in words)” value in experiment [1] was “little or no activity”. Moreover, the “activity against GGDPS (in words)” value in experiment [3] was “little or no activity”.
With `CC(C)=CCC/C(C)=C/CC(OCC=C(C)C)(P(=O)(O)O)P(=O)(O)O` [Compound 16], the IC50 was 0.83 µM in experiment [1] and 0.684 µM in experiment [3].
For `CC(C)=CCOC(CC=C(C)C)(P(=O)(O)O)P(=O)(O)O` [Compound 18], in experiment [1], the “activity against FDPS (in words)” value is reported as “little or no activity” and the IC50 amounted to 5.26 µM. In experiment [3], the “activity against GGDPS (in words)” value is on record as “little or no activity” and the midpoint of inhibition, the IC50, lay at 4.75 µM.
Regarding `CC(C)=CCC/C(C)=C/COC(CC=C(C)C)(P(=O)(O)O)P(=O)(O)O` [Compound 20], the IC50 in experiment [1] was more than 10 µM; in experiment [3], 0.274 µM.
As to `CC(C)=CCC/C(C)=C/CC(OCC[C@@H](C)CCC=C(C)C)(P(=O)([O-])[O-])P(=O)([O-])[O-].[Na+].[Na+].[Na+].[Na+]` [Compound 24], in experiment [1], the “activity against FDPS (in words)” value is recorded as “no activity” and the IC50 was more than 10 µM. In experiment [3], this molecule came in with an IC50 of 0.082 µM. The “fold more potent than the DGBP control (5), GGDPS” value in experiment [3] (ratio of GGDPS IC50 values) is given as ~ 2.6 fold.
Consider `CC(C)=CCCC(C)=CCC(P(=O)(O)O)P(=O)(O)O` [geranyl bisphosphonate], for which, in experiment [4], the “activity previously reported (GGDPS inhibition)” value was 10 µM.
